Measured values taken from patent US7091033B2, “Array of toxicologically relevant canine genes and uses thereof” (Phase-1 Molecular Toxicology, Inc., priority 2000, dated 2006).

Test system: canine genes differentially expressed in organs (liver, spleen, kidney, testes, heart, thymus)
Assay: Transcriptome profiling / differential display of tissues from canines exposed to an agent versus vehicle (reverse transcription, PCR, reamplification of bands, sequencing)
Type: in vivo
[1] = Band # CTP1D, No significant match
[2] = Band # CTP1G, No significant match
[3] = Band # CTP74A, No significant match
[4] = Band # CTP75C, No significant match
[5] = Band # CTP85D, Homo sapiens Rho-assoc XM_008814

COc1cc([C@@H]2c3cc4c(cc3[C@@H](O[C@@H]3O[C@@H]5CO[C@@H](C)O[C@H]5[C@H](O)[C@H]3O)[C@H]3COC(=O)[C@H]23)OCO4)cc(OC)c1O [Etoposide]
Expression Pattern [1]: upregulated with Etoposide, caffeine
Expression Pattern [2]: upregulated with Etoposide, caffeine
Expression Pattern (Band # CTP7B, No significant match): upregulated in Etoposide treated
Expression Pattern (Band # CTP8A, No significant match): repressed in Etoposide treated
Expression Pattern (Band # CTP8C, Human DNA sequence fn HSJ734P14): repressed in Etoposide treated
Expression Pattern (Band # CTP10Y, Canis familiaris mitochon CFU96639): upregulated in Etoposide treated
Expression Pattern (Band # CTP11A, cyclin-dependent kinase i BC001935): upregulated in Etoposide treated
Expression Pattern (Band # CTP16B, Homo sapiens cDNA FLJAK000548): repressed in Etoposide treated
Expression Pattern (Band # CTP17G, No significant match): repressed in Etoposide treated
Expression Pattern (Band # CTP18B, No significant match): upregulated in Etoposide treated
Expression Pattern (Band # CTP19F, Homo sapiens chromosor AC008651): upregulated in Etoposide treated
Expression Pattern (Band # CTP34A, Homo sapiens ribosomal NM_001032): repressed in Etoposide

CC(=O)Oc1ccccc1C(=O)O [aspirin]
Expression Pattern [1]: upregulated with Etoposide, caffeine
Expression Pattern [2]: upregulated with Etoposide, caffeine
Expression Pattern (Band # CTP3B, Homo Sapien N-myc dow BC003175, larger band of doublet): doublet-larger band is upregulated
Expression Pattern (Band # CTP25D, No significant match): repressed with caffeine and aspirin
Expression Pattern (Band # CTP26A, Canis familiaris chymase U89607): repressed with caffeine and aspirin
Expression Pattern (Band # CTP26B, H. sapiens cycA gene for X68303): repressed with caffeine and aspirin
Expression Pattern (Band # CTP27C, Homo sapiens CTCL turn AF177227): repressed with etoposide and aspirin
Expression Pattern (Band # CTP32D, cDNA FLJ14795 fls, clone AK027701): repressed with caffeine and aspirin
Expression Pattern (Band # CTP144B, No significant match): repressed with caffeine and aspirin
Expression Pattern (Band # CTP145B, No significant match): repressed with aspirin
Expression Pattern (Band # CTP148B, Homo sapiens serine-thre AF108830): induced with aspirin
Expression Pattern (Band # CTP161B, Canis familiaris TCTA ger AJ012166): induced with aspirin
Expression Pattern (Band # CTP164A, No significant match): induced with aspirin
Expression Pattern (Band # CTP215B, No significant match): induced with aspirin
Expression Pattern (Band # CTP222D, No significant match): induced with aspirin

N.N.O=C([O-])C1(C(=O)[O-])CCC1.[Pt+2] [carboplatin]
Expression Pattern (Band # CTP28D, Homo sapiens upstream INM_014517): repressed in carboplatin
Expression Pattern (Band # CTP30E, Homo sapiens BAC clone AC003083): repressed in carboplatin
Expression Pattern (Band # CTP58A, No significant match): repressed with carboplatin
Expression Pattern (Band # CTP60B, Homo sapiens RNA bindii XM_016120): repressed with carbo and trans platin
Expression Pattern (Band # CTP65A, Pig mRNA for endoplasm X16951): repressed with carbo and trans platin
Expression Pattern (Band # CTP71A, Canis familiaris caveolin- U47060): induced with carboplatin
Expression Pattern [3]: repressed with carbo, trans and cisplatin
Expression Pattern [4]: repressed with carbo, trans and cisplatin
Expression Pattern [5]: repressed with carbo, trans and cisplatin
Expression Pattern (Band # CTP122I, Human mRNA for KIAA0(D26067)): repressed with carbo and transplatin
Expression Pattern (Band # CTP178B, Homo sapiens mRNA for AB040957): induced with carboplatin
Expression Pattern (Band # CTP179K, No significant match): induced with carboplatin
Expression Pattern (Band # CTP185C, No significant match): induced with carbo and trans platin
Expression Pattern (Band # CTP197A, No significant match): induced with carboplatin
Expression Pattern (Band # CTP201B, Homo sapiens, exostoses BC001174): induced with carboplatin
Expression Pattern (Band # CTP202C, No significant match): induced with carboplatin
Expression Pattern (Band # CTP205D, Homo sapiens similar to XM_011187): induced with carboplatin
Expression Pattern (Band # CTP206A, Homo sapiens fatty acid c NM_013402): repressed with carbo and transplatin
Expression Pattern (dog, in vivo): repressed with carbo and trans platin

N.N.[Cl][Pt][Cl] [cisplatin]
Expression Pattern (Band # CTP31A, No significant match): upregulated in cisplatin
Expression Pattern (Band # CTP41B, Homo sapiens mRNA for AB037813): repressed in cisplatin
Expression Pattern (Band # CTP47G, No significant match): induced with cisplatin
Expression Pattern (Band # CTP50A, No significant match): induced with cisplatin
Expression Pattern (Band # CTP51A, Homo sapiens intestinal 1 AF219991): induced with cisplatin
Expression Pattern (Band # CTP52B, No significant match): induced with cisplatin
Expression Pattern (Band # CTP53A, No significant match): induced with cisplatin
Expression Pattern (Band # CTP59A, Homo sapiens cyclin D2 (XM_012143)): induced with cisplatin
Expression Pattern (Band # CTP62A, No significant match): induced with cisplatin
Expression Pattern (Band # CTP63A, No significant match): induced with cisplatin
Expression Pattern (Band # CTP64B, No significant match): induced with cisplatin
Expression Pattern (Band # CTP67A, clone RP5-1071L10 on cl AL133228): repressed with cisplatin
Expression Pattern (Band # CTP68F, Oryctolagus cuniculus Ne U09823): repressed with cisplatin
Expression Pattern (Band # CTP70A, No significant match): repressed with cisplatin
Expression Pattern (Band # CTP72B, No significant match): repressed with cisplatin
Expression Pattern (Band # CTP73A, Homo sapiens chromosor AC026201): repressed with cisplatin
Expression Pattern (Band # CTP73B, No significant match): repressed with cisplatin
Expression Pattern [3]: repressed with carbo, trans and cisplatin
Expression Pattern [4]: repressed with carbo, trans and cisplatin
Expression Pattern (Band # CTP76B, No significant match): induced with cisplatin
Expression Pattern (Band # CTP77D, No significant match): repressed with cisplatin
Expression Pattern (Band # CTP78B, Homo sapiens SON DNA XM_009738): induced with cisplatin
Expression Pattern (Band # CTP79B, No significant match): induced with cisplatin
Expression Pattern (Band # CTP80A, Homo sapiens WDR4 ger AB039887): repressed with cisplatin
Expression Pattern (Band # CTP81A, No significant match): induced with cisplatin
Expression Pattern [5]: repressed with carbo, trans and cisplatin
Expression Pattern (Band # CTP86F, Homo sapiens chromodoi NM_001272): induced with cisplatin
Expression Pattern (Band # CTP87B, Homo sapiens tetratricopi XM_009760): induced with cisplatin
Expression Pattern (Band # CTP88A, Rattus norvegicus ribosor NM_022506): repressed with cisplatin
Expression Pattern (Band # CTP89B, Homo sapiens genomic [AP003473): induced with cisplatin
Expression Pattern (Band # CTP90A, Homo sapiens clone 248(AF070622)): induced with cisplatin
Expression Pattern (Band # CTP92A, No significant match): induced with cisplatin
Expression Pattern (Band # CTP92C, Human DNA sequence fn AL133286): induced with cisplatin
Expression Pattern (Band # CTP93F, clone RP1-211D12 on ch Z93016): induced with cisplatin
Expression Pattern (Band # CTP94B, Homo sapiens clathrin, h NM_008305): induced with cisplatin
Expression Pattern (Band # CTP99A, No significant match): repressed with cisplatin
Expression Pattern (Band # CTP100A, COX15 (yeast) homolog, BC002382): induced with cisplatin
Expression Pattern (Band # CTP103JJ, No significant match): induced with cisplatin
Expression Pattern (Band # CTP104I, No significant match): repressed with cisplatin
Expression Pattern (Band # CTP109P, No significant match): induced with cisplatin
Expression Pattern (Band # CTP110A, No significant match): induced with cisplatin
Expression Pattern (Band # CTP111A, No significant match): induced with cisplatin
Expression Pattern (Band # CTP112B, Bos taurus peroxiredoxin AF305561): induced with cisplatin
Expression Pattern (Band # CTP113A, Box taurus ribosomal proi AF063243): induced with cisplatin
Expression Pattern (Band # CTP115B, Homo sapiens chromosoi AC005899): induced with cisplatin
Expression Pattern (Band # CTP116A, No significant match): induced with cisplatin
Expression Pattern (Band # CTP117B, Homo sapiens similar to XM_017740): induced with cisplatin
Expression Pattern (Band # CTP119J, H. sapiens SPR-2 mRNA 1X68560 S52): induced with cisplatin
Expression Pattern (Band # CTP121D, Human ribosomal protein U43701): induced with cisplatin
Expression Pattern (Band # CTP124B, No significant match): induced with cisplatin
Expression Pattern (Band # CTP126A, No significant match): induced with cisplatin
Expression Pattern (Band # CTP131B, Homo sapiens similar to s XM_006087): induced with cisplatin
Expression Pattern (Band # CTP133B, No significant match): induced with cisplatin
Expression Pattern (Band # CTP134A, No significant match): induced with cisplatin
Expression Pattern (Band # CTP135A, Homo sapiens cDNA FLJAK021570): induced with cisplatin
Expression Pattern (Band # CTP300B, Homo sapiens utrophin (I-NM_007124)): repressed with cisplatin
Expression Pattern (Band # CTP304B, Homo sapiens unknov XM_002211): induced with cisplatin
Expression Pattern (Band # CTP306B, No significant match): induced with cisplatin
Expression Pattern (Band # CTP308KK, No significant match): induced with cisplatin
Expression Pattern (Band # CTP309A, No significant match): repressed with cisplatin
